Source: US20230116703A1, “NOVEL ERGOLINES AND METHODS OF TREATING MOOD DISORDERS” (priority 2021, published 2023)
Like-named read-outs stand apart in the source and are kept apart here.

Legend:
5-HT2A receptor [1] = biological target: T1, 5-HT2A receptor (Homo sapiens, UniProt P28223); experiment: PathHunter beta-arrestin recruitment assay at 5-HT2A; assay type: cell-based
T1 construct: host or cells: HEK293
Description: The degree of arrestin bias varied substantially across the other compounds tested as well.
Arrestin Functional Assay at 5-HT2A. Recruitment of beta-arrestin was determined using a PathHunter assay at Eurofins DiscoverX (Fremont, Calif.) according to their standard protocols. PathHunter GPCR beta-arrestin assays take advantage of DiscoverX's proprietary Enzyme Fragment Complementation technology. The GPCR is fused in frame with a small enzyme donor fragment ProLink™ (PK) and co-expressed in cells stably expressing a fusion protein of beta-arrestin and the larger, N-terminal deletion mutant of beta-galactosidase. Activation of the GPCR (5-HT2A receptor in this case) stimulates binding of beta-arrestin to the PK-tagged GPCR and forces complementation of the two enzyme fragments, resulting in the formation of an active beta-galactosidase enzyme. This interaction leads to an increase in enzyme activity that can be measured using chemiluminescent PathHunter Detection Reagents. Briefly, PathHunter cells expressing 5-HT2A receptors were seeded in a volume of 20 μL into 384-well plates and incubated at 37° C. for the appropriate time prior to testing. […] Plates were then imaged on a microplate reader and the agonist activity was calculated using the following formula: % Activity=100%×(mean RLU of test sample−mean RLU of vehicle control)/(mean MAX control ligand−mean RLU of vehicle control), where RLU=relative light units.

[2] = Metabolic stability in mouse liver microsomes (MLM); assay type: in vitro ADME; details: 0.50 mg protein per mL; for t1/2: MLM (CD-1), 1 μM
Excerpt: MLM Stability Pooled MLM from CD-1 mice (BIOIVT M00501) were used.

5-HT1A receptor = biological target: T2, 5-HT1A receptor (Homo sapiens, UniProt P08908); experiment: cell-based
T2 construct: host or cells: CHO cells
T2 sequence (P08908 1-422): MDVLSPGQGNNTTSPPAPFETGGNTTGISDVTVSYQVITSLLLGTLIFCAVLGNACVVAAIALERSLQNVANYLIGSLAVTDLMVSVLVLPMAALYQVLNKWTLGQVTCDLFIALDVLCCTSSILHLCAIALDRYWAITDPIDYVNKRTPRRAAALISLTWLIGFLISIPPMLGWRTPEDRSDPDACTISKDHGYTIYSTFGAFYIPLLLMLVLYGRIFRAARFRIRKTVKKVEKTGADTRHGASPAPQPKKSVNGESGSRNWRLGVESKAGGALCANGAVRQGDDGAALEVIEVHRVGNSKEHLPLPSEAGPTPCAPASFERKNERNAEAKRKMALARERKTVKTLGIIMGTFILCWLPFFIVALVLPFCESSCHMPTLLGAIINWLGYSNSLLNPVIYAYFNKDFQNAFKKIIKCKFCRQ

5-HT2B receptor = biological target: T3, 5-HT2B receptor (Homo sapiens, UniProt P41595); experiment: cell-based; details: Ca^2+ flux, agonist; read-out: 5-HT2B EC50
T3 construct: host or cells: HEK293

[3] = Metabolic stability in rat liver microsomes (RLM); details: for t1/2: RLM, 0.50 mg protein per mL
[4] = Metabolic stability in human liver microsomes (HLM); assay type: in vitro ADME; details: for t1/2: 1 μM, 0.50 mg protein per mL
Excerpt: HLM Stability. Pooled HLM from adult male and female donors (Corning 452117) were used.

5-HT2A receptor [5] = biological target: T1, 5-HT2A receptor; experiment: biochemical; assay type: binding; details: 1 nM [^3H]ketanserin, HEK293 stable cell line; read-out: 5-HT2A Receptor Ki (nM) ([^3H]ketanserin)
How it was run: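 Test compounds competed with [^3H]ketanserin for receptor binding, and affinity was derived from the radioligand displacement.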

human 5-HT2C receptor = biological target: T4, human 5-HT2C receptor (Homo sapiens, UniProt P28335); experiment: cell-based; details: Ca^2+ flux, agonist
T4 sequence (P28335 33-458): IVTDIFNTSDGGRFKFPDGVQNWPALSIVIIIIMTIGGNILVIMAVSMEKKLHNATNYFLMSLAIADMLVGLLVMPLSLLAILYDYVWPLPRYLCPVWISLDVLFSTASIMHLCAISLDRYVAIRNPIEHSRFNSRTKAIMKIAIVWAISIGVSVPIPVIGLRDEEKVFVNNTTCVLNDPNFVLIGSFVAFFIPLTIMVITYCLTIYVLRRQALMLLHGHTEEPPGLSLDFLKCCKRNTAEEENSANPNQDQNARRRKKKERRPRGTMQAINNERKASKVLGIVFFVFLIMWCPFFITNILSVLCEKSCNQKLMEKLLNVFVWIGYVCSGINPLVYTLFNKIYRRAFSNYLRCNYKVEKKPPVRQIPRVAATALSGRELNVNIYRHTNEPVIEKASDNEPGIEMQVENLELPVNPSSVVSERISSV

5-HT2A receptor [6] = biological target: T1, 5-HT2A receptor; experiment: cell-based; assay type: cell-based; details: Ca^2+ flux, agonist; read-out: 5-HT2A EC50
C57BL/6 mice = experiment: Head twitch response (HTR) in mice; assay type: in vivo, mouse; details: mouse HTR, SC
Description: Agonists of the 5-HT2A receptor are well known to induce this effect in rodents and the potency of this HTR is correlated with hallucinogenic potency in humans.
Animals. Adult male C57BL/6 mice, aged 6-8 weeks (body weight 20-25 g) were used in this experiment. Animals were housed under controlled temperatures and 12-hour light/dark cycles (lights on between 07:00-19:00 h), with ad libitum food and water. This study was carried out in strict accordance with the requirements of the Committee for the Purpose of Control and Supervision of Experiments on Animals (CPCSEA), India. All efforts were made to minimize suffering.
Drugs and Drug Administration. Compound 1 was synthesized as described above. It was administered subcutaneously (SC) dissolved in saline vehicle at a volume of 10 mL/kg. Five doses were tested, with n=6 animals/group. Doses were calculated on the basis of the freebase.
Procedure. Mice were administered one dose of the drug and immediately placed into a small open field for behavioral observation. Animals were observed continuously for 20 mins and the number of head twitches (HTs) were counted by an observer blind to the treatment condition.
Statistical Analysis. The data points shown are the mean±standard error of the mean (SEM). Analysis was performed using GraphPad Prism 6. Curves were fit using a non-linear gaussian distribution to calculate ED50 and Emax values.
Additional disclosed compounds were tested in the mouse head twitch response (HTR) assay according to the procedure described in Example 43. […] Lastly, compounds with much larger benzyl and phenethyl substituents on the amine nitrogen (e.g., 10 and 11) were low efficacy in this assay, consistent with their lower maximal efficacy in the arrestin functional assay (see Example 41).

[7] = mouse, pooled mouse liver microsomes, pH 7.4, MLM (CD-1)
[8] = Ca^2+ flux, agonist, read-out: 5-HT1A EC50
[9] = both, rat, pooled rat liver microsomes, pH 7.4
[10] = both sexes, human, pooled human liver microsomes, pH 7.4, 0.50 mg protein per mL

T1 sequence (P28223 whole entry): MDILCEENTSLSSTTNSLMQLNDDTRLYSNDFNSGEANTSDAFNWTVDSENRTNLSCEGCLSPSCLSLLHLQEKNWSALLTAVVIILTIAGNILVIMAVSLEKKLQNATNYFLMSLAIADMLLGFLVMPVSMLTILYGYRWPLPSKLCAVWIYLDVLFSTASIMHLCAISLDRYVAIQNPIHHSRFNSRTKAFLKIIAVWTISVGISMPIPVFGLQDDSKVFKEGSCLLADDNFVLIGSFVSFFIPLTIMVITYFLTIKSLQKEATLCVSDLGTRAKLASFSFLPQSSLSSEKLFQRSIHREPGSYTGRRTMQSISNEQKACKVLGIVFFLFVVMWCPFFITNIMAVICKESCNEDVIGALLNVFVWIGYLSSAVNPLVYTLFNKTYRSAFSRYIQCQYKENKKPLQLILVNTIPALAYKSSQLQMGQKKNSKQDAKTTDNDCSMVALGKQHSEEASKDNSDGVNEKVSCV
T3 sequence (P41595 whole entry): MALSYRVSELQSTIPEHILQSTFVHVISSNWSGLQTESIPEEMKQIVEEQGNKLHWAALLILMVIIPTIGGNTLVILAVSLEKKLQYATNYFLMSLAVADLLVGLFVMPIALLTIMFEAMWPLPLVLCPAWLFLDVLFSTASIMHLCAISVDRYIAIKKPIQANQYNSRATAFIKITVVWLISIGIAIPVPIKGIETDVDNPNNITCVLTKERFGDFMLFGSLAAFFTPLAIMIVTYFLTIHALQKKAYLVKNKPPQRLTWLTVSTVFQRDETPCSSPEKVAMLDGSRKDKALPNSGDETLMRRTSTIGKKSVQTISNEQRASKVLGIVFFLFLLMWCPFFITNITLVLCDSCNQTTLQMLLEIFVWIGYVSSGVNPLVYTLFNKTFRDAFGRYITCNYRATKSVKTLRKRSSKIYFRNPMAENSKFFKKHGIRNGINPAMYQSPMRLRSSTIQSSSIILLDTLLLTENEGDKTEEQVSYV

| Structure (SMILES) | EC50 (5-HT2A receptor [1]) [nM] | t1/2 [2] [min] | microsomal CLint at 1 μM [2, 7] [µL/min/mg] | EC50 (5-HT1A receptor; [8]) [nM] | EC50 (5-HT2B receptor) [nM] | t1/2 [3] [min] | microsomal CLint at 1 μM [3, 9] [µL/min/mg] | t1/2 [4] [min] | microsomal CLint at 1 μM [4, 10] [µL/min/mg] | Ki (5-HT2A receptor [5]) [nM] | EC50 (human 5-HT2C receptor) [nM] | EC50 (5-HT2A receptor [6]) [nM] | agonist type in arrestin recruitment assay (in words) (5-HT2A receptor [1]; 5-HT2A beta-arrestin) | half-life at 1 μM [2, 7] [min] | half-life at 1 μM [3, 9] [min] | half-life at 1 μM [4, 10] [min] | ED50 (C57BL/6 mice; 20 min, 20 min observation, curve fit, poor in some cases, read-out: ED50 (95% CI)) [mg/kg] | Most Efficacious Dose (C57BL/6 mice) [mg/kg] | Emax (95% CI) (C57BL/6 mice; 20 min observation, curve fit, poor in some cases) | EC50 (5-HT1A receptor) [nM] |
| --- | --- | --- | --- | --- | --- | --- | --- | --- | --- | --- | --- | --- | --- | --- | --- | --- | --- | --- | --- | --- |
| CCN(CC)C(=O)[C@H]1C=C2c3cccc4[nH]cc(c34)C[C@H]2N(CCCF)C1 [Compound 2a, (6aR,9S)—N,N-diethyl-7-(3-fluoropropyl)-4,6,6a,7,8,9-hexahydroindolo[4,3-fg]quinoline-9-carboxamide] | 50.6 | 1.776 | 780 | 543 | 2170 | 9.673 | 143 | 17.018 | 81.4 | 115 | 256 | 169 | – | – | – | – | – | – | – | – |
| CCCN1C[C@@H](C(=O)N[C@H](C)CC)C=C2c3cccc4[nH]cc(c34)C[C@H]21 [Compound 3a, (6aR,9S)—N—((R)-sec-butyl)-7-propyl-4,6,6a,7,8,9-hexahydroindolo[4,3-fg]quinoline-9-carboxamide] | 54 | 0.6 | 2490 | 155 | 1820 | 1.4 | 960 | 2.2 | 63.4 | 27.6 | 132 | 146 | – | – | – | – | – | – | – | – |
| CC[C@@H](C)NC(=O)[C@@H]1C=C2c3cccc4[nH]cc(c34)C[C@H]2N(CC)C1 [Compound 5, (6aR,9R)—N—((R)-sec-butyl)-7-ethyl-4,6,6a,7,8,9-hexahydroindolo[4,3-fg]quinoline-9-carboxamide] | 1.92 | – | 170 | 0.96 | 35.4 | – | 72 | – | 62.3 | 2.18 | 1.29 | 0.718 | full agonists | 8.1 | 19.3 | 22.2 | 0.0306 | 0.32 | 15.22 (11.77-19.03) | – |
| CC[C@@H](C)NC(=O)[C@H]1C=C2c3cccc4[nH]cc(c34)C[C@H]2N(CC)C1 [Compound 5a, (6aR,9S)—N—((R)-sec-butyl)-7-ethyl-4,6,6a,7,8,9-hexahydroindolo[4,3-fg]quinoline-9-carboxamide] | 66.8 | 1.7 | 834 | 131 | 2510 | 3.1 | 453 | 5.5 | 251 | 74.5 | 811 | 118 | – | – | – | – | – | – | – | – |
| C=CCN1C[C@@H](C(=O)N[C@H](C)CC)C=C2c3cccc4[nH]cc(c34)C[C@H]21 [Compound 8a, (6aR,9S)-7-allyl-N—((R)-sec-butyl)-4,6,6a,7,8,9-hexahydroindolo[4,3-fg]quinoline-9-carboxamide] | 1180 | 0.8 | 1660 | 1560 | 3590 | 1.7 | 835 | 3.4 | 409 | > 1230 | > 10000 | 396 | – | – | – | – | – | – | – | – |
| CC[C@@H](C)NC(=O)[C@H]1C=C2c3cccc4[nH]cc(c34)C[C@H]2N(C)C1 [Int8a, (6aR,9S)—N—((R)-sec-butyl)-7-methyl-4,6,6a,7,8,9-hexahydroindolo[4,3-fg]quinoline-9-carboxamide] | 19.3 | 1.6 | 843 | 163 | > 10000 | 3.5 | 394 | 11.1 | 125 | 84.3 | 160 | 178 | – | – | – | – | – | – | – | – |
| CCC(CC)NC(=O)[C@H]1C=C2c3cccc4[nH]cc(c34)C[C@H]2N(C)C1 [Int14a, (6aR,9S)-7-methyl-N-(pentan-3-yl)-4,6,6a,7,8,9-hexahydroindolo[4,3-fg]quinoline-9-carboxamide] | 35.7 | 1.699 | 816 | – | > 10000 | 1.8 | 770 | 3.35 | 414 | 56.2 | 508 | 468 | – | – | – | – | – | – | – | 1550 |
| CCC[C@@H](C)NC(=O)[C@H]1C=C2c3cccc4[nH]cc(c34)C[C@H]2N(C)C1 [Int17a, (6aR,9S)-7-methyl-N—((R)-pentan-2-yl)-4,6,6a,7,8,9-hexahydroindolo[4,3-fg]quinoline-9-carboxamide] | 75.8 | 1.576 | 880 | 266 | > 10000 | 1.961 | 707 | 4.578 | 303 | 41.3 | 962 | 425 | – | – | – | – | – | – | – | – |
